Primed or numbered codes have the meaning given here. Where no end group is shown, it is not given here. The star is where a group is joined. NOTA = O=C(O)CN1CCN(CC(=O)O)CCN(CC(=O)*)CC1; PEG2′ = not defined here
T1: FGFR1 (Homo sapiens, UniProt P11362)
T1 chain: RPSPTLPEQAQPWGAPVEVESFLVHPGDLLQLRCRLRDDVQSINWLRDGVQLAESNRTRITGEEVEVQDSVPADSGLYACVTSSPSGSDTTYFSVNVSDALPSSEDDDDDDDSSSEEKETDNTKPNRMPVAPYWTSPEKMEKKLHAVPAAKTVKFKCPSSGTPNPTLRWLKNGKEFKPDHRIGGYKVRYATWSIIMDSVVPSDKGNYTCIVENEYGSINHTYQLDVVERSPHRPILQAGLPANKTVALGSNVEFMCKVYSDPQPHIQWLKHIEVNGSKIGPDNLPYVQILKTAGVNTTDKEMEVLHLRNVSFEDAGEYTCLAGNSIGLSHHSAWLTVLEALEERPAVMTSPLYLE


Key:
FGFR1 [1] = conditions: preclinical studies; higher affinity for FGFR1 than for other FGFR subtypes; cited from earlier work
From the text: To assess FGFR aberration status, tissue specimens generally need to be collected via invasive procedures, such as surgery or biopsy. These approaches may be limited by heterogeneity, tumor stage, the invasiveness of the procedure, long operating time and the functional status of patients’ major organs. To overcome the inconvenience of invasive operations, molecular imaging has emerged as a noninvasive method to detect FGFR expression in tumors at the cellular or subcellular level ([23]–[25]), which are different from traditional anatomic imaging. […].

FGFR1 [2] = biological target: T1, FGFR1; assay: saturation binding assay on RT-112 cells (radioligand)

Molecule | IC50 (FGFR1 [1]) [nM] | Kd (FGFR1 [2]) [nM]
AZD4547 | < 1 | 
{NOTA-PEG2′}-KAEWKSLGEEAWHSK (also: Al18F complexed by NOTA) [[18F]F-FGFR1 peptide (NOTA-PEG2-KAEWKSLGEEAWHSK)] |  | 190

Reference: publication PMC10174317, “^18F-labeled FGFR1 peptide: a new PET probe for subtype FGFR1 receptor imaging” (Frontiers in Oncology, 2023)
